Test results reported in US9233946B2, “Sulfonamide compounds” (KANCERA AB, priority 2010, dated 2016).

How the values were obtained:
PFKFB4 = PFKFB4 (Homo sapiens (Human), UniProt Q16877); assay: PFKFB4 kinase activity, Method B (ADP-Glo Kinase Assay); type: biochemical
From the text: (§1) The PFKFB3 (placenta form) and PFKFB4 were produced and purified to homogeneity from E. coli at Biovitrum and at Sprint Bioscience. All other reagents were purchased from commercial sources. Two independent methods have been used for determination of the kinase activity of PFKFB3 (Method A and Method B). Method B has been used for determination of the kinase activity of PFKFB4.
Method B: The kinase activity of the bi-functional enzyme is readily quantified based on the production of ADP and F-2,6-P2 from ATP and F6P. The ADP is detected with a kit, ADP-Glo™ Kinase Assay^(a-e), from Promega. The assay is a luminescent ADP detection assay that measures kinase activity by quantifying the amount of ADP produced during the kinase reaction. The assay is performed in two steps; first, after the kinase reaction, an equal volume of ADP-Glo™ Reagent is added to terminate the kinase reaction and deplete the remaining ATP. Second, the Kinase Detection Reagent is added to simultaneously convert ADP to ATP and allow the newly synthesized ATP to be measured using a luciferase/luciferine reaction. The light generated is measured using a luminescence counter (1450 MicroBeta TriLux).
The assay was performed in white 384-well microtiter plates (OptiPlate, 6007299, PerkinElmer) by consecutive additions of 0.1 μL of a test compound solution (serial diluted in DMSO from compound DMSO stock solution and dispensed by acoustic dispensing from UV-star 384-well plate 7360153, VWR), 5 μL of enzyme solution and 5 μL of a substrate (fructose-6-phosphate (F6P) and adenosine-5′-triphosphate (ATP)) containing solution. […] Four reference dose response curves, one of them being the QC compound, were included in row O1-2, P1-2, and serial diluted as the test compounds. The final concentrations of all reagents in a total assay volume of 10.1 μL per well were: • 50 mM Tris-HCl at pH 8.0 • 10 mM MgCl2 • 5 mM Na2HPO4 at pH 8.0 • 81.48 nM PFKFB3 or 145 nM PFKFB4 • 8 μM ATP • 100 μM F6P (acid treated and then neutralized to remove any contaminating F-2,6-P2; see Van Schaftingen, 1984) • 0.005% Tween-20 • 1 mM dithiothreitol (DTT) • A test compound at various concentrations or controls (final DMSO concentration 0.99%)
Enzyme, compounds and controls were pre-incubated at room temperature for 15 min before the addition of substrate solution. The enzymatic reaction was allowed to proceed for 20 min (PFKFB3) or 40 min (PFKFB4) at room temperature. The reaction was terminated by the addition of 10 μL of ADP-Glo™ Reagent to all wells and the plate was incubated for 40 min at room temperature. After addition of 20 μL Kinase Detection Reagent to all wells the plate was incubated for 30 min at room temperature, followed by measurement in 1450 MicroBeta TriLux. All plates were centrifuged after each addition (room temperature, short spin, 500 RPM, Megafuge 1.0 Heraeus Instruments).
The inhibitory potency or IC50 values of test compounds on the kinase activity of PFKFB3 or PFKFB4 were calculated using a four-parameter model (model 205) in XLfit (IDBS ActivityBase XE Runner).

PFKFB3 = PFKFB3 (Homo sapiens (Human), UniProt Q16875); assay: PFKFB3 kinase activity, Method A (F-2,6-P2 production, coupled PPi-PFK/NADH assay); type: biochemical
PFKFB3, sequence (Q16875 whole entry): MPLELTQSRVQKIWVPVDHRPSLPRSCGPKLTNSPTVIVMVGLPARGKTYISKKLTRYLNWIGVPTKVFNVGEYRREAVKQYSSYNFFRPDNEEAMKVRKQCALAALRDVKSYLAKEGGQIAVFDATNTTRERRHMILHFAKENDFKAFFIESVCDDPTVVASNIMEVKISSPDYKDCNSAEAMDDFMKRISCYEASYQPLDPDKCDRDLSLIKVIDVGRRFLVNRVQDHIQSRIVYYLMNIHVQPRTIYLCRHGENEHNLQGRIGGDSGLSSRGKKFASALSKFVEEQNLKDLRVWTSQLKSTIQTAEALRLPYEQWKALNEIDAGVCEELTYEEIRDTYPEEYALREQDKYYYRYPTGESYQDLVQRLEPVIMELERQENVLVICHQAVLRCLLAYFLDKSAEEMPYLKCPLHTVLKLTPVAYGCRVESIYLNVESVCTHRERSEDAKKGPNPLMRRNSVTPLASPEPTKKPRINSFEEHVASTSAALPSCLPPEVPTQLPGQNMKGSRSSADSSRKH
From the text: as §1
Method A: The kinase activity of the bi-functional enzyme is readily quantified based on the production of F-2,6-P2 as described by Van Schaftingen et al. (1982) Eur. J. Biochem. 129, 191-5. This sensitive assay is based on the potent activation of pyrophosphate dependent phosphofructokinase-1 (PPi-PFK) from potato tubers by F-2,6-P2. The use of a series of coupled enzymes leads to a consumption of NADH (nicotinamide adenine dinucleotide) that can be followed spectrophotometrically (an updated protocol is available in Van Schaftingen, (1984) Methods of Enzymatic Analysis (Bergmeyer, H. U., ed.), 3rd edn., vol. 6, pp. 335-341, Verlag Chemie, Weinheim). A protocol for measurements in 96-well microtiter plate format is also available (Bruni et al., (1989) Anal. Biochem. 178, 324-6). These assay protocols have been adopted for the measurement of the kinase activity of PFKFB3 with some modifications as described in the protocol below.
The assay was run in 96-well microtiter plates (Costar 3365 round bottom polypropylene) by consecutive additions of 30 μl each of a test compound solution (diluted from a DMSO stock solution), a PFKFB3 solution and a substrate (fructose-6-phosphate (F6P) and adenosine-5′-triphosphate (ATP)) containing solution. […] The final concentrations of all reagents in a total assay volume of 90 μl per well were: • 50 mM Tris-acetate at pH 8.0 • 0.1 mM EDTA (ethylene diamine tetraacetic acid) • 10 mM MgCl2 • 5 mM Na2HPO4 (buffered by the Tris-acetate to a final pH of 8.0) • 5 nM PFKFB3 • 4 μM ATP • 100 μM F6P (acid treated and then neutralized to remove any contaminating F-2,6-P2; see Van Schaftingen, 1984) • 1 mM dithiothreitol (DTT) • 0.005% Tween-20
A test compound at various concentrations (which also added 0.83% DMSO to the final solution)
The enzymatic reaction was allowed to proceed for 10 minutes at room temperature while on a plate shaker at medium speed (750 RPM). The reaction was then terminated by the addition of 90 μl of a 0.4 M NaOH solution to all wells. The plate was then placed on the plateshaker at the same speed for two minutes to allow sufficient mixing. All samples were then diluted by a factor of 10 by transferring 20 μl from each well to the corresponding well of a new plate with 180 μl distilled water predispensed to all wells.
The next step in the protocol was quantification of the levels of F-2,6-P2 in each well of the microtiter plate. This was done by transferring 20 μl of the content in each well to the corresponding position in a new plate (Nunc 269620 transparent 96-well plate). […] To ensure that all measured values were within the linear range of the response (measured to be between 0-1 nM of F-2,6-P2 as also described by Van Schaftingen) the same volume of a 2.5 nM and a 5.0 nM standard sample were also added to column 12 (as all samples were diluted five-fold in the assay procedure this corresponds to 0.5 and 1.0 nM samples). The procedure then involved consecutive additions of three solutions with the following premixed components: • Assay-mix (20 μl): Tris-acetate at pH 8.0, NADH and Mg(OAc)2 • PPi/F6P-mix (40 μl): Pyrophosphate and F6P • Enzyme-mix (20 μl): Tris-acetate at pH 8.0, aldolase, triose phosphate isomerase, glycerol-3-phosphate dehydrogenase, pyrophosphate-dependent phosphofructokinase from potato tubers and bovine serum albumin (BSA) […]

PFKFB4, sequence (Q16877 whole entry): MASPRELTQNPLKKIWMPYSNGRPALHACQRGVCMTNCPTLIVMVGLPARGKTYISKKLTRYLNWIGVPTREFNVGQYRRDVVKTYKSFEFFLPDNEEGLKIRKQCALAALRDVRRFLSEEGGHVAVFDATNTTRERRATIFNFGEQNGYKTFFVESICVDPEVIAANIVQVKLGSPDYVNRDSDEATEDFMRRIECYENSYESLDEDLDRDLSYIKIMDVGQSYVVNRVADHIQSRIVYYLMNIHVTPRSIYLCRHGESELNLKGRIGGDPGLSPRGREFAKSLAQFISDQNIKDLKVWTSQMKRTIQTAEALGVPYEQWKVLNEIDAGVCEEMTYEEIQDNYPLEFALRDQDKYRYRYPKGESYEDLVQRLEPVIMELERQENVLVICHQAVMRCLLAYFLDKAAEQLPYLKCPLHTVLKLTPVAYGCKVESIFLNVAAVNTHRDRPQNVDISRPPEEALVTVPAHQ

Row | IC50 (PFKFB4) [nM] | IC50 (PFKFB3) [nM] | Structure (SMILES)
1 | 60 | 30 | Cc1c(S(=O)(=O)Nc2cccc(C(=O)O)c2)sc2ccc(C(C)C)cc12 [Example 5, 3-{[(5-Isopropyl-3-methyl-1-benzothien-2-yl)sulfonyl]amino}benzoic acid]
2 | 130 | 180 | Cc1c(S(=O)(=O)Nc2cccc(C(=O)O)c2)sc2ccc(Cl)cc12 [Example 38, 3-{[(5-Chloro-3-methyl-1-benzothien-2-yl)sulfonyl]amino}benzoic acid]
